PMC12090182, “Repurposing of the RIPK1-Selective Benzo[1,4]oxazepin-4-one Scaffold for the Development of a Type III LIMK1/2 Inhibitor” (ACS Chemical Biology, 2025)

Columns and labels:
[1] = biological target: ABL1(F317L)-phosphorylated (Homo sapiens, UniProt P00519, F317L); test: biochemical; format: binding; conditions: compound concentration 100 nM; Entrez ABL1; read-out: Percent Control
NEK1A = NEK1A (Homo sapiens, UniProt Q96PY6); test: DSF selectivity screening; format: binding; conditions: 10 μM compound
In short: (§1)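 Protein melting monitored by SYPRO Orange fluorescence at 465 nm excitation, 590 nm emission, using 2 μM kinase domain with compound at 10 μM. Buffer: 20 mM HEPES pH 7.5, 500 mM NaCl; heating step 3 °C/min. Tm defined as transition inflection point via Boltzmann equation.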

FGFR1B = FGFR1B (Homo sapiens, UniProt P11362); test: DSF selectivity screening; format: binding; conditions: 10 μM compound
In short: as §1

CAMK2BA = CAMK2BA (Homo sapiens, UniProt Q13554); test: DSF selectivity screening; format: binding; conditions: 10 μM compound
In short: as §1

FLT1A = FLT1A (Homo sapiens, UniProt P17948); test: DSF selectivity screening; format: binding; conditions: 10 μM compound
In short: as §1

CDC42BPAA = test: DSF selectivity screening; format: binding; conditions: 10 μM compound
In short: as §1

MST4A = MST4A (Homo sapiens, UniProt Q9P289); test: DSF selectivity screening; format: binding; conditions: 10 μM compound
In short: as §1

PHKG2A = PHKG2A (Homo sapiens, UniProt P15735); test: DSF selectivity screening; format: binding; conditions: 10 μM compound
In short: as §1

RPS6KA1A = test: DSF selectivity screening; format: binding; conditions: 10 μM compound
In short: as §1

NEK2 = NEK2 (Homo sapiens, UniProt P51955); test: DSF selectivity screening; format: binding; conditions: 10 μM compound
In short: as §1

CAMK4A = CAMK4A (Homo sapiens, UniProt Q16566); test: DSF selectivity screening; format: binding; conditions: 10 μM compound
In short: as §1

MAPKAPK2A = MAPKAPK2A (Homo sapiens, UniProt P49137); test: DSF selectivity screening; format: binding; conditions: 10 μM compound
In short: as §1

EPHA4A = EPHA4A (Homo sapiens, UniProt P54764); test: DSF selectivity screening; format: binding; conditions: 10 μM compound
In short: as §1

CDKL1A = CDKL1A (Homo sapiens, UniProt Q00532); test: DSF selectivity screening; format: binding; conditions: 10 μM compound
In short: as §1

AURKBA = AURKBA (Homo sapiens, UniProt Q96GD4); test: DSF selectivity screening; format: binding; conditions: 10 μM compound
In short: as §1

CDK2A = CDK2A (Homo sapiens, UniProt P24941); test: DSF selectivity screening; format: binding; conditions: 10 μM compound
In short: as §1

MARK3A = MARK3A (Homo sapiens, UniProt P27448); test: DSF selectivity screening; format: binding; conditions: 10 μM compound
In short: as §1

TTKA = TTKA (Homo sapiens, UniProt P33981); test: DSF selectivity screening; format: binding; conditions: 10 μM compound
In short: as §1

KIT(D816H) = KIT(D816H) (Homo sapiens, UniProt P10721, D816H); test: biochemical; format: binding; conditions: 1000 nM, read-out: Percent Control
BRAF(V600E) [2] = biological target: T1, BRAF(V600E) (Homo sapiens, UniProt P15056, V600E); test: biochemical; format: binding; conditions: compound concentration 100 nM; Entrez BRAF; read-out: Percent Control
PIK3CA(E545K) = PIK3CA(E545K) (Homo sapiens, UniProt P42336, E545K); test: biochemical; format: binding; conditions: read-out: Percent Control
FLT3(R834Q) = FLT3(R834Q) (Homo sapiens, UniProt P36888, R834Q); test: biochemical; format: binding; conditions: 1000 nM, read-out: Percent Control
[3] = biological target: ABL1(M351T)-phosphorylated (Homo sapiens, UniProt P00519, M351T); test: biochemical; format: binding; conditions: compound concentration 100 nM; Entrez ABL1; read-out: Percent Control
MET(Y1235D) = MET(Y1235D) (Homo sapiens, UniProt P08581, Y1235D); test: biochemical; format: binding; conditions: 1000 nM, read-out: Percent Control
EGFR(L858R) = EGFR(L858R) (Homo sapiens, UniProt P00533, L858R); test: biochemical; format: binding; conditions: 1000 nM, read-out: Percent Control
RET(V804M) = RET(V804M) (Homo sapiens, UniProt P07949, V804M); test: biochemical; format: binding; conditions: 1000 nM, read-out: Percent Control
JAK2 (V617F) = JAK2 (V617F) (Homo sapiens, UniProt O60674, V617F); test: cell-based; conditions: HEK-293T; 1 μM inhibitor, HEK293T cells
FLT3(ITD,F691L) = format: binding; conditions: compound concentration 100 nM; Entrez FLT3
[4] = biological target: EGFR(L747-E749del, A750P) (Homo sapiens, UniProt P00533, A750P/DEL747-749); test: biochemical; format: binding; conditions: compound concentration 100 nM; Entrez EGFR; read-out: Percent Control
KIT(V559D) = KIT(V559D) (Homo sapiens, UniProt P10721, V559D); test: biochemical; format: binding; conditions: 1000 nM, read-out: Percent Control
BRPF1A = BRPF1A (Homo sapiens, UniProt P55201); test: DSF selectivity screening; format: binding; conditions: 10 μM compound
BRAF(V600E) [5] = biological target: T1, BRAF(V600E); test: cell-based; conditions: HEK-293T; 1 μM inhibitor, HEK293T cells
[6] = biological target: ABL1(T315I)-nonphosphorylated (Homo sapiens, UniProt P00519, T315I); test: biochemical; format: binding; conditions: read-out: Percent Control
PIK3CA(E542K) = PIK3CA(E542K) (Homo sapiens, UniProt P42336, E542K); test: biochemical; format: binding; conditions: read-out: Percent Control
LIMK1 = LIMK1 (Homo sapiens, UniProt P53667); test: Differential scanning fluorimetry assay for LIMK1/2; format: binding; conditions: LIMK1, 10 μM compound
Experimental: The assay was performed according to a previously established protocol. […] The compounds to be tested were added to a final concentration of 10 μM. […] Data were analyzed with MxPro software.

T1 sequence (P15056 whole entry V600E): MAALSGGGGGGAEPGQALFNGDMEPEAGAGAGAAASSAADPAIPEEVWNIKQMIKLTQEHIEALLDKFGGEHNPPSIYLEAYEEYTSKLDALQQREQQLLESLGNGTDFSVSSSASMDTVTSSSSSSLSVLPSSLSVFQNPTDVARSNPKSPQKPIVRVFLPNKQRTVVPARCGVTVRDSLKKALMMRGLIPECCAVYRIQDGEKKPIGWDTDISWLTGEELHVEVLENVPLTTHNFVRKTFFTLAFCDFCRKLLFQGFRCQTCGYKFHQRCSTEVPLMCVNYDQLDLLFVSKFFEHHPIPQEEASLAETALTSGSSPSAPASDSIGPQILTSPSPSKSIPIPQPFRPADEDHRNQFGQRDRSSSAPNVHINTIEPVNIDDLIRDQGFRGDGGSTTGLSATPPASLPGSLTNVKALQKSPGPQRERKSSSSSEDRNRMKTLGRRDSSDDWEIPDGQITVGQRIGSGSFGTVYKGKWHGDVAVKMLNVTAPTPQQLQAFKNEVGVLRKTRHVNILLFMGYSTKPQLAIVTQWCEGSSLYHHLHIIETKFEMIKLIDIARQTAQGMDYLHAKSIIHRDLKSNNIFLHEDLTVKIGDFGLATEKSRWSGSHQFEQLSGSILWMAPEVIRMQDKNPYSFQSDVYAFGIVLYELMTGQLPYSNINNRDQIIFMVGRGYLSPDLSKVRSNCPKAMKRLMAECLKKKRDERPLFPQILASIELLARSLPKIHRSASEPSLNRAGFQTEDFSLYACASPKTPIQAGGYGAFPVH
RET(V804M), sequence (P07949 29-1114 V804M): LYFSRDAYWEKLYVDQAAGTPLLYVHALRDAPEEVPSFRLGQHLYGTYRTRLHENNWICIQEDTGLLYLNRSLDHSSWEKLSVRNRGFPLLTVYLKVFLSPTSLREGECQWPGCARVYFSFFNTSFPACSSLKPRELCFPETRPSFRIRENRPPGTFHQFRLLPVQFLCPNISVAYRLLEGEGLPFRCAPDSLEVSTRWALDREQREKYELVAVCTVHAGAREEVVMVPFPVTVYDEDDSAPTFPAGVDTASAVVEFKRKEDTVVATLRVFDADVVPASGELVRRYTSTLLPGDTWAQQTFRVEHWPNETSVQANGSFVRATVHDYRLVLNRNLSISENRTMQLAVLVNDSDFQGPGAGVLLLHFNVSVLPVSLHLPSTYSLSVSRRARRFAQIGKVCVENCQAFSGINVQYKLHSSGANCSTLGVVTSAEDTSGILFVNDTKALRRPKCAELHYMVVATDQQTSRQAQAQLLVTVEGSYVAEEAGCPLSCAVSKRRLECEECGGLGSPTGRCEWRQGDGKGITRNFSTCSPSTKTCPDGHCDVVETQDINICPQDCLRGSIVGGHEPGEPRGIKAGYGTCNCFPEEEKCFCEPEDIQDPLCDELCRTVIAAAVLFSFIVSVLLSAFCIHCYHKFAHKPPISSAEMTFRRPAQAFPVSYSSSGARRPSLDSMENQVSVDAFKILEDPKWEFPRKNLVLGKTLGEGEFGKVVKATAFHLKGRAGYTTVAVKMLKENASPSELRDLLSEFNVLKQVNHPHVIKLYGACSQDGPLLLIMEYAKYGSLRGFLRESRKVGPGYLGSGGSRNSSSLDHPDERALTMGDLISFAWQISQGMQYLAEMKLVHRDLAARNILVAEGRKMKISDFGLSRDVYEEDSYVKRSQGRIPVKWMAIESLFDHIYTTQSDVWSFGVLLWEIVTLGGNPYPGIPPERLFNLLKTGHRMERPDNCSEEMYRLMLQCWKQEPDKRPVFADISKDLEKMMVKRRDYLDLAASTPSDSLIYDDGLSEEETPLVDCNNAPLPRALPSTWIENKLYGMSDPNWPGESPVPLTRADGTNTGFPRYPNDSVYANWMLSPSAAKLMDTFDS
FGFR1B, sequence (P11362 456-767): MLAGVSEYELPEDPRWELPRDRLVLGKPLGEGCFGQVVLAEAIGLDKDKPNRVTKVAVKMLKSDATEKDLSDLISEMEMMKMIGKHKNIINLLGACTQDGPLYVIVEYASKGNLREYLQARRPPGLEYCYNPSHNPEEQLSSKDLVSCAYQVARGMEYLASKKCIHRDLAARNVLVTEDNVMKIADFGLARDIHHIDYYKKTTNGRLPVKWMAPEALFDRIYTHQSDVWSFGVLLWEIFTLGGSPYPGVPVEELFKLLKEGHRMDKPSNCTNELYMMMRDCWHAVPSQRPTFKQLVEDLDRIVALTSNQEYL
CAMK4A, sequence (Q16566 whole entry): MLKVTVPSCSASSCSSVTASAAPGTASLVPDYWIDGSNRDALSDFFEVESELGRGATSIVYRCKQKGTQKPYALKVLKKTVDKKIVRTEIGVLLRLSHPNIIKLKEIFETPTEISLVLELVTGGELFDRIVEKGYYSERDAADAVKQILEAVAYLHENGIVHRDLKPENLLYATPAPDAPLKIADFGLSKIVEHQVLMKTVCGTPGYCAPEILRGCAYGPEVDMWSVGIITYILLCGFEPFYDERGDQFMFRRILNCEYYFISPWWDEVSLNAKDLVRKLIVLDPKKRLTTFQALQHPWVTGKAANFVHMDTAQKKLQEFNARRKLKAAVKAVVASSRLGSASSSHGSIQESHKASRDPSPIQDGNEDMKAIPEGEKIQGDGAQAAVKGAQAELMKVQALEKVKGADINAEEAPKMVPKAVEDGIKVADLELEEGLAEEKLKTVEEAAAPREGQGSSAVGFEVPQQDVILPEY
KIT(V559D), sequence (P10721 26-976 V559D): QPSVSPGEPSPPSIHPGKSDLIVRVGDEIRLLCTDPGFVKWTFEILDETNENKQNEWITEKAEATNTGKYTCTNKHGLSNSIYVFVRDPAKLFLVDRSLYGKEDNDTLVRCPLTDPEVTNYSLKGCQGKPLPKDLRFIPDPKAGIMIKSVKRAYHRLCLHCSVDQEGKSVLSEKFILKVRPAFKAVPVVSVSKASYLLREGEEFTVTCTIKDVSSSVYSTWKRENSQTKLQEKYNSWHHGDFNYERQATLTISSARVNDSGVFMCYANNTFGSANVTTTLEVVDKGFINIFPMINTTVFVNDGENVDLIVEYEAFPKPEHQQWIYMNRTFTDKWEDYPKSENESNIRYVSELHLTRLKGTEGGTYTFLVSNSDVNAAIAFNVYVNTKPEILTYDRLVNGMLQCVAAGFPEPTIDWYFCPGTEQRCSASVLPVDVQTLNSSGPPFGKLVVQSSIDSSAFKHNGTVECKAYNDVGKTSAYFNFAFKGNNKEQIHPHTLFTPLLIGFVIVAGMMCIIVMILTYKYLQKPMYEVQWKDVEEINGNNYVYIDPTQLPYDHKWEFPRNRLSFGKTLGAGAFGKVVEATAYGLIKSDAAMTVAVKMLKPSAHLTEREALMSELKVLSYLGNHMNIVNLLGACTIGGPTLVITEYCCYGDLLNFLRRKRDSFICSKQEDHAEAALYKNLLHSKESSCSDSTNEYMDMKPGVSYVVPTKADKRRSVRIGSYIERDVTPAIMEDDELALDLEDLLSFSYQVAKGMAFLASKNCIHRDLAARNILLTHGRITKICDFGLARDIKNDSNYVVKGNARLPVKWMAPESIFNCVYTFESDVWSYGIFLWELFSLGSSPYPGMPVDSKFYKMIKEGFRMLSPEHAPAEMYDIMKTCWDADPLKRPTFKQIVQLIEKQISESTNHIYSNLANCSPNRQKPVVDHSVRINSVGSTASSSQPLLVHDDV
AURKBA, sequence (Q96GD4 55-344): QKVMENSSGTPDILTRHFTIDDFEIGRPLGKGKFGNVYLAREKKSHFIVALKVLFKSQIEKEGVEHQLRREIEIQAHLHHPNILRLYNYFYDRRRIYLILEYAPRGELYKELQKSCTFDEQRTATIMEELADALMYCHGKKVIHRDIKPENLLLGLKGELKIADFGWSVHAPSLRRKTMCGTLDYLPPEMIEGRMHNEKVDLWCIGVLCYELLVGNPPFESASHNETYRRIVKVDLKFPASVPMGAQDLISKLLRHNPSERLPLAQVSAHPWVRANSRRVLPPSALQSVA
EPHA4A, sequence (P54764 621-882): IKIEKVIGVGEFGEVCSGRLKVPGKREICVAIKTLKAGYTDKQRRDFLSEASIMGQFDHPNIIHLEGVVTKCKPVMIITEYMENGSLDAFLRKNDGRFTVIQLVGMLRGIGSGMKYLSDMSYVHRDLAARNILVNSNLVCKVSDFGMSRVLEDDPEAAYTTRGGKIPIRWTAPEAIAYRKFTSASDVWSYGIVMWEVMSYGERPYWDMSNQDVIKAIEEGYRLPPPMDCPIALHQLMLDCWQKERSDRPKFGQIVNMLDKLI
CDKL1A, sequence (Q00532 whole entry): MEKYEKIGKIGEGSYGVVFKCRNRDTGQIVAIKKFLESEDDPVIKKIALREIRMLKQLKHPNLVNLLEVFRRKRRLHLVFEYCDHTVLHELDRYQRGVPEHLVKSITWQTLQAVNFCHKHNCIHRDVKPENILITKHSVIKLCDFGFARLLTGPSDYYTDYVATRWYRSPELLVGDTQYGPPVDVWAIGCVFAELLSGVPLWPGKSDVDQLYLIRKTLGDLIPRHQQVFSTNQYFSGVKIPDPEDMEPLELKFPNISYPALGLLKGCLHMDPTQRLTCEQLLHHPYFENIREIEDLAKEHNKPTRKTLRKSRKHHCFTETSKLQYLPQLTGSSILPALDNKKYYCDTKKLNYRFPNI
MAPKAPK2A, sequence (P49137 64-325): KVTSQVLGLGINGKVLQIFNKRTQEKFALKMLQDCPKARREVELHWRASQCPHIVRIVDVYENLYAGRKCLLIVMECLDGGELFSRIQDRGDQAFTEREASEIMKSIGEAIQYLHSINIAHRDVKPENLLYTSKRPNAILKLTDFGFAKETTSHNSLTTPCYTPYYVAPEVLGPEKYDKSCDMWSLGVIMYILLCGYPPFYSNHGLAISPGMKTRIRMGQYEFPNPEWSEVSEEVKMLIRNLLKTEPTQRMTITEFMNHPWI
KIT(D816H), sequence (P10721 26-976 D816H): as the sequence (P10721 26-976 V559D) above, with D534V, D791H counted along it

`CN1C(=O)[C@@H](N2CCc3c(nn(Cc4ccccc4)c3C(N)=O)C2=O)COc2cc(Cl)ccc21` [Compound 10, (S)-2-benzyl-6-(8-chloro-5-methyl-4-oxo-2,3,4,5-tetrahydrobenzo[b][1,4]oxazepin-3-yl)-7-oxo-4,5,6,7-tetrahydro-2H-pyrazolo[3,4-c]pyridine-3-carboxamide] was tested, and the remaining activity at 0.1 µM [1] was 100%, the ΔTm at 10 µM (NEK1A) was 0.1 °C and the ΔTm at 10 µM (FGFR1B) was -0.1 °C. The ΔTm at 10 µM (CAMK2BA) was 0.1 °C, the ΔTm at 10 µM (FLT1A) was 0.2 °C and the ΔTM (CDC42BPAA) was -0.1 K. The ΔTm at 10 µM (MST4A) was -0.1 °C, the ΔTm at 10 µM (PHKG2A) was 0 °C and the ΔTM (RPS6KA1A) was 0 K. For the same compound, the ΔTm at 10 µM (NEK2) was 1.3 °C, the ΔTm at 10 µM (CAMK4A) was 0.1 °C and the ΔTm at 10 µM (MAPKAPK2A) was 0 °C. For the same compound, the ΔTm at 10 µM (EPHA4A) was 0.2 °C, the ΔTm at 10 µM (CDKL1A) was 0 °C and the ΔTm at 10 µM (AURKBA) was 0.2 °C. For the same compound, the ΔTm at 10 µM (CDK2A) was 0 °C, the ΔTm at 10 µM (MARK3A) was 0.3 °C and the ΔTm at 10 µM (TTKA) was -0.3 °C. For the same compound, the remaining activity at 1 µM (KIT(D816H)) was 97%, the remaining activity at 0.1 µM (BRAF(V600E) [2]) was 100% and the remaining activity at 1 µM (PIK3CA(E545K)) was 97%. It also gave a remaining activity at 1 µM (FLT3(R834Q)) of 92%, a remaining activity at 0.1 µM [3] of 92% and a remaining activity at 1 µM (MET(Y1235D)) of 93%. For the same compound, the remaining activity at 1 µM (EGFR(L858R)) was 100%, the remaining activity at 1 µM (RET(V804M)) was 93% and the receptor occupancy at 1 µM (JAK2 (V617F)) was 2.27%. The “Percent Control” value (FLT3(ITD,F691L)) was 100, the remaining activity at 0.1 µM [4] was 100% and the remaining activity at 1 µM (KIT(V559D)) was 85%. It also gave a ΔTm at 10 µM (BRPF1A) of -0.8 °C, a receptor occupancy at 1 µM (BRAF(V600E) [5]) of -9.8% and a remaining activity at 1 µM [6] of 73%. For the same compound, the remaining activity at 1 µM (PIK3CA(E542K)) was 94%.
`CN1C(=O)[C@@H](N2CCc3c(C(N)=O)nn(Cc4ccccc4)c3C2=O)COc2ccccc21` [Compound 11] was tested, and the “ΔTM (stabilization in the DSF assay)” value (LIMK1) was “inactive”.
